# Reference: ChEMBL document CHEMBL1131898, “4-Pyridin-5-yl-2-(3,4,5-trimethoxyphenylamino)pyrimidines: potent and selective inhibitors of ZAP 70” (Bioorg Med Chem Lett, 1999)
# How the values were obtained:
# Protein kinase C (PKC) = experiment: Inhibition of protein kinase C (PKC); format: protein assay
# [1] = target: Tyrosine-protein kinase Lck (Homo sapiens, UniProt P06239); experiment: Inhibition of p56 lck tyrosine kinase
# [2] = target: T1, Tyrosine-protein kinase ZAP-70 (Homo sapiens, UniProt P43403); experiment: Inhibition of Zeta-chain (TCR) associated protein kinase 70 kDa phosphorylation of polyGly-Tyr.
# T1 sequence (P43403 whole entry): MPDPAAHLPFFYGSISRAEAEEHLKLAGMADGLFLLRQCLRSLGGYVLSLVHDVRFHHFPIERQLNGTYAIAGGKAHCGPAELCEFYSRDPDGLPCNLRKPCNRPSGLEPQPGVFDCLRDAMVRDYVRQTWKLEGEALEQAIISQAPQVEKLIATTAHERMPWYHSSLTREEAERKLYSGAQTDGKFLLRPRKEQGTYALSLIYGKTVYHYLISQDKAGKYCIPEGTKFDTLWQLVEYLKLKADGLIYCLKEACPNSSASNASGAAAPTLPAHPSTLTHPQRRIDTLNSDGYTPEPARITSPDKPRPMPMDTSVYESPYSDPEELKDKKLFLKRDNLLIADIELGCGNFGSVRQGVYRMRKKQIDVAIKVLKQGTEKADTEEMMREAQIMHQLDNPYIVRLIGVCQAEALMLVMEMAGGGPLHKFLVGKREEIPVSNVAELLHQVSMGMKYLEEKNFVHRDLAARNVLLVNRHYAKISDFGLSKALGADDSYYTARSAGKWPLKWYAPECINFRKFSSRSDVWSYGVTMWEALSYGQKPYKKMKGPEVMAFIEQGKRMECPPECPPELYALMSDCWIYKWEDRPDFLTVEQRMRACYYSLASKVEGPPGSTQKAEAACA
# [3] = target: Tyrosine-protein kinase CSK (Homo sapiens, UniProt P41240); experiment: Inhibition of csk tyrosine kinase
# [4] = target: Epidermal growth factor receptor (Homo sapiens, UniProt P00533); experiment: Inhibition of Epidermal growth factor receptor (EGFr)
# Chain of Epidermal growth factor receptor (P00533 whole entry): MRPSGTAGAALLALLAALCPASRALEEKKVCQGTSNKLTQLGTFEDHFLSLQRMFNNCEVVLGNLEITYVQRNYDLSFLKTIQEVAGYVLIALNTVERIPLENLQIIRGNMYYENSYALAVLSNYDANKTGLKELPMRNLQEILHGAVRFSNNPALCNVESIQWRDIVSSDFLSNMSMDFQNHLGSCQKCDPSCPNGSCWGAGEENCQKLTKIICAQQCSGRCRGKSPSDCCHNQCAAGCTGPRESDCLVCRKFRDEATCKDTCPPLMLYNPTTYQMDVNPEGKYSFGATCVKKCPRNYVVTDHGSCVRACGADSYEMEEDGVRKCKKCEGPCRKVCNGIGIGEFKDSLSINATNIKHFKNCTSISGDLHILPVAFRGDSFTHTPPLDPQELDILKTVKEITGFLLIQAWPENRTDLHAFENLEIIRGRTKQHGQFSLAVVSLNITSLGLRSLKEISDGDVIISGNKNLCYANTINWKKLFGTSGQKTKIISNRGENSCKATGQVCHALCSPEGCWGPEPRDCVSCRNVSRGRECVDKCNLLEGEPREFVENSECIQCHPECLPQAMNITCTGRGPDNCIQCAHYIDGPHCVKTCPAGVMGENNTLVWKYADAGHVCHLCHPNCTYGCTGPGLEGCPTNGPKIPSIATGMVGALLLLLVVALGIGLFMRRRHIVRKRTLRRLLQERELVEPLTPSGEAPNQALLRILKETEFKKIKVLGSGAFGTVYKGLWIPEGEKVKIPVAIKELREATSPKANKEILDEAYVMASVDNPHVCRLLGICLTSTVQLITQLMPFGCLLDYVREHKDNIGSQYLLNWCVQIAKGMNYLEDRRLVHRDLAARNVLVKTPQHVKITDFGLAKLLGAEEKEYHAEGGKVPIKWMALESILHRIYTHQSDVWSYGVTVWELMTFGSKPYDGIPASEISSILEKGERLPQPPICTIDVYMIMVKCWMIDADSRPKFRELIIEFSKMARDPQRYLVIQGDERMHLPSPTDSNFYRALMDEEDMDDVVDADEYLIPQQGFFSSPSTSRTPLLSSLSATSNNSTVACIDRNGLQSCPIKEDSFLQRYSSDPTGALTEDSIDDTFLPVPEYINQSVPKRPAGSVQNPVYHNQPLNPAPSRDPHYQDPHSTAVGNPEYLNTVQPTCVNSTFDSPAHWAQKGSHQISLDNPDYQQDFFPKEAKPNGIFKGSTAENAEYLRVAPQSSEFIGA
# Chain of Tyrosine-protein kinase Lck (P06239 whole entry): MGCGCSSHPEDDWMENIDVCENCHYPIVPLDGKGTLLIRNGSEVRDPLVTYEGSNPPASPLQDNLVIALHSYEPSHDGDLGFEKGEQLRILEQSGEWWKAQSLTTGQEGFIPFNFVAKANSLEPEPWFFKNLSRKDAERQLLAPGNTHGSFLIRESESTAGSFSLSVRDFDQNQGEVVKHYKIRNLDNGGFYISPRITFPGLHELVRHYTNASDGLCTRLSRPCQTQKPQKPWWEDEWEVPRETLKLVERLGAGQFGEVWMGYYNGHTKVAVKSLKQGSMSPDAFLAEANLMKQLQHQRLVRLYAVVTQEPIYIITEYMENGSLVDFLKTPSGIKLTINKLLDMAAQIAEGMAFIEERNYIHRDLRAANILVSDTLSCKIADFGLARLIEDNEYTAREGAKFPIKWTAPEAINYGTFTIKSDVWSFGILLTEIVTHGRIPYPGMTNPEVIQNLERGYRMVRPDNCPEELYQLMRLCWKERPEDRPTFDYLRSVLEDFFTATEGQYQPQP
IC50 (Protein kinase C (PKC)),IC50 [1],IC50 [2],IC50 [3],IC50 [4],Compound
1.4 µM,1.1 µM,1.9 µM,,,COc1cc(Nc2nccc(-c3cccnc3)n2)cc(OC)c1OC
2.874 µM,2.2 µM,0.008 µM,,,CC[C@H]1CN(c2ccc(-c3ccnc(Nc4cc(OC)c(OC)c(OC)c4)n3)cn2)CCN1
0.15 µM,1.2 µM,,> 10 µM,5.1 µM,COc1cc(Nc2nccc(-c3ccc(NCCN)nc3)n2)cc(OC)c1OC
1.3 µM,3.3 µM,0.054 µM,> 10 µM,,COc1cc(Nc2nccc(-c3ccc(N4CCNCC4)nc3)n2)cc(OC)c1OC
